These are literature values, as cited in PMC3575012 (Scientific Reports, 2013).

In data set [1] the test system is amyloid precursor protein. The following applies: stated as known, explained by buried free N-terminus of Aβ; ref not given.
Data set [2] concerns plaque deposited Aβ.
Data set [3] relates to Alzheimer's disease. The following applies: cohort of patients suffering “mild” AD; ref not given.

With Bapineuzumab, the “cross reactivity with the amyloid precursor protein” value in data set [1] is “lack of cross reactivity”. For the same substance, the binding preference result in data set [2] is “Preferential binding”.

Solanezumab: the cognitive improvement result in data set [3] is on record as “small but significant cognitive improvement”.
